Measurements as given in patent US5977144A (priority 1997, dated 1999).

How the values were obtained:
[1] = target: T1, alpha4beta2 receptor (cytisine binding, rat brain membranes) (Rattus norvegicus, UniProt P09483+P12390); assay: biochemical; conditions: 1 μM (Table 2); read-out: alpha4beta2 binding: % inhibition of cytistine binding
T1 construct: from tissue; host or cells: rat brain membranes
Excerpt: Further, the cinnamylidene-anabaseines displaced high affinity cytisine binding to rat brain membranes with lower affinity than other types of benzylidene-anabaseines. These observations are consistent with the cinnamylidene-anabaseines having some selectivity for alpha7 receptor subtypes over other types of nicotinic receptors, especially alpha4beta2 receptors, based on the types of receptors to which alpha-bungarotoxin and cytisine bind to in brain.

[2] = target: rat alpha4beta2 receptor (Rattus norvegicus, UniProt P09483+P12390); assay: Antagonism of alpha4beta2 receptors in oocytes (residual inhibition of ACh response after drug); assay type: cell-based; conditions: xenopus oocytes
rat alpha4beta2 receptor, sequence (P09483 31-630): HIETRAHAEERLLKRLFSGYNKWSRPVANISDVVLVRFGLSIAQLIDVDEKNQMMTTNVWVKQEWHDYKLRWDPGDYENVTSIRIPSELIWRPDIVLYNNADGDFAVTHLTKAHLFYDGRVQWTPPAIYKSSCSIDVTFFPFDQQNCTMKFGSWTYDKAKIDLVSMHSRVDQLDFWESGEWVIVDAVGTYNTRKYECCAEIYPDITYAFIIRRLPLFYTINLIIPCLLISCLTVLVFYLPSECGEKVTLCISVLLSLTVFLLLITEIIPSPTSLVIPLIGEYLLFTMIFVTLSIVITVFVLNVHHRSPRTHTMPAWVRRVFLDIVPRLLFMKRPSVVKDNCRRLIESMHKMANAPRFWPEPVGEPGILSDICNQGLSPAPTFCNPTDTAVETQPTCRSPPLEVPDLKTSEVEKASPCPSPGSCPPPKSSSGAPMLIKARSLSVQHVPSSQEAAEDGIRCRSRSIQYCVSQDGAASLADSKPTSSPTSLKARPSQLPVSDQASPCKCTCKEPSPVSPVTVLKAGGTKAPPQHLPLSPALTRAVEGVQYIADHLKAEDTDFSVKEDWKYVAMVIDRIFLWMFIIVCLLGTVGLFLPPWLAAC
rat alpha4beta2 receptor, sequence (P12390 25-500): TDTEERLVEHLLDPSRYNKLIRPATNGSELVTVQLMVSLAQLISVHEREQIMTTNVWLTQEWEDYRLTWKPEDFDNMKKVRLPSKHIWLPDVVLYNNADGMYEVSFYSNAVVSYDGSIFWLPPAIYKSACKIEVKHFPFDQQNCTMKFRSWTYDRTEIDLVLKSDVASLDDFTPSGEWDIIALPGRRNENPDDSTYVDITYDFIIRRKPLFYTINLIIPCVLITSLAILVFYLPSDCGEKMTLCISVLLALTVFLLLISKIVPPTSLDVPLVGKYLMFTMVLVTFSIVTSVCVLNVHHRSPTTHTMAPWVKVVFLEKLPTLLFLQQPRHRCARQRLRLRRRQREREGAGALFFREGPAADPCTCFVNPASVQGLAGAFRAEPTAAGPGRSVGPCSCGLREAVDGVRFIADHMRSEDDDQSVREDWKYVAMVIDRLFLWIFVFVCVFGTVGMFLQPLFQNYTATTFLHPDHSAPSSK
Procedure: Oocytes were prepared and recordings made as described previously (de Fiebre, et al., 1995). Frogs were anesthetized by submersion in 0.1% (3)-aminobenzoic acid ethyl ester and several lobes of the ovary surgically removed through a small incision in the abdomen wall. Oocytes were freed from the follicle cells by treatment with collagenase (in calcium-free Barth's solution: 88 mM NaCl, 1 mM KCl, 15 mM Hepes pH 7.6, 0.33 mM MgSO4, 0.1 mg/ml gentamicin sulfate) for 2 hr at room temperature and Stage 5 oocytes were isolated. Oocytes were rinsed and stored at 18° C. in Barth's saline (88 mM NaCl, 1 mM KCl, 15 mM Hepes pH 7.6, 0.3 mM Ca(NO3)2, 0.41 mM CaCl2, 0.82 mM MgSO4, 0.1 mg/ml gentamicin sulfate) before and after microinjection with RNA. Microinjection was conducted with a Drummond Scientific "Nanoject Variable" automatic injector. Oocytes were injected with a 50 nl solution of specified rat nicotinic subunit mRNA species (2-10 mg/ml; derived from the cDNA containing HIP 306 plasmid kindly provided by Dr. Jim Boulter, Salk Institute) and incubated 2-7 days at 18° C. before electrophysiological recording. electrophysiological recordings, oocytes were perfused in a Warner Instruments RC-8 recording chamber with a perfusion solution containing 115 mM NaCl, 2.5 mM KCl, 10 mM Hepes pH 7.2, 1.8 mM CaCl2 and 1 μM atropine to block muscarinic responses. Perfusion was continuous at a rate of 10 ml/min. Drags were diluted in perfusion solution and applied using a solenoid valve to switch from perfusion to drug solutions. Current responses to drug administration were studied under two electrode voltage clamp at a holding potential of -70 mV using a Dagan Corp. TEV-200 voltage clamp connected to a 386-SX IBM computer using a TL-1 DMA interface (Axon Instruments). […] Drug responses are analyzed with PClamp software (Axon Instruments). […]
Antagonist properties subsequent to agonist activity were measured as a decrease in responsiveness to ACh applied 5 min after compound-application, normalized to ACh application instead of the anabaseine-derivative (FIG. 13A AND FIG. 13B).

[3] = system: fimbrial transections; conditions: Meyer et al., in press; cited from earlier work

T1 sequence (P09483 31-630): as the sequence (P09483 31-630) above
T1 sequence (P12390 25-500): as the sequence (P12390 25-500) above

COc1ccccc1/C=C/C=C1\CCCN=C1c1cccnc1 [2-MeOCA, E,E-3-(2-Methoxycinnamylidene)anabaseine]
inhibition at 1 µM [1]: 29%
alpha4beta2 antagonism: % of antagonism of acetylcholine administered after drug [2]: 10

COc1ccc(/C=C2\CCCN=C2c2cccnc2)c(OC)c1 [DMXB, 3-(2,4-Dimethoxybenzylidene) anabaseine]
activity against fimbrial transections in vivo (in words) [3]: neuroprotective activity
